# Values joined by “and” are separate entries in the source; they are usually repeats but may differ in a detail not shown here. Equal values may be shown once.
# Experiments:
# [1] = tested on: model leg (left) footpad of sciatic nerve-ligated rat; assay: Rat pain test, Seltzer partial sciatic nerve ligation model, von Frey up-and-down method, model leg (left); format: in vivo
# [2] = tested on: neuropathic pain mouse (L5 and L6 nerve ligation); assay: Suppression of allodynia pain in mouse nerve ligation model, von Frey filament; format: in vivo; conditions: for pain threshold of nerve-ligated group vs medium solvent-applied group: hind leg immersed
# Method: FIG. 1 is a graph showing results of measurement of analgesic effect obtained by applying an aqueous solution of pregabalin (2.5 mg/ml) to a neuropathic pain mouse. The asterisks (*) indicate the presence of a significant difference with respect to the distilled water-applied group.
# FIG. 2 is a graph showing results of measurement of analgesic effect obtained by applying an aqueous solution of pregabalin (7.5 mg/ml) to a neuropathic pain mouse. The asterisks (*) indicate the presence of a significant difference with respect to the distilled water-applied group.
# The nerves L5 and L6 of mice (n=6) were ligated with silk threads to prepare pain model. A sham group was prepared as a control (n=6). After 4 weeks, hind legs of the mice were immersed in a 2.5 mg/ml or 7.5 mg/ml aqueous solution of pregabalin (solution prepared by dissolving 75 mg of pregabalin in 10 ml or 30 ml of distilled water) 5 minutes before the measurement until the hair of whole right hind leg was wetted with the solution, and air-dried over 30 minutes after the application. In this state, pain threshold was measured by using a von Frey standard filament, and then pain threshold was measured in the same manner 60 minutes, 90 minutes, and 180 minutes thereafter.
# [3] = tested on: normal leg (right) footpad of rat; assay: Rat pain test, Seltzer model, von Frey up-and-down method, normal leg (right); format: in vivo
# [4] = Serum pregabalin concentration after application to the back of an adult, LC/MS (Example 12); format: in vivo, human; conditions: 150 mg in aqueous solution applied to the back
# Method: An aqueous solution containing pregabalin (150 mg) was applied to the back of an adult. After the application, blood was collected, and the serum was deproteinized, and then reacted with dinitrobenzenesulfonyl chloride to derivatize pregabalin. Pregabalin was quantified by LC/MS. The pregabalin concentration reached 9 ng/ml 30 minutes after the administration, and this concentration was maintained thereafter over 3 hours or longer.
# [5] = model site, 1 mg/site on footpad, individual animals No. 71-78
# [6] = model site, 1 mg/site, average of 8 animals
# [7] = normal site, 1 mg/site on footpad, individual animals No. 71-78
# [8] = normal site, 1 mg/site, average of 8 animals
compound,measurement,setting,value
CC(C)C[C@H](CN)CC(=O)O [Pregabalin],"change of pain threshold values, pain model legs","[1]; 10.0 mg/mL in water with 0.1% Tween 80, 0.10 mL on footpad, after 1 hour",Sufficient increase
same,"pain threshold value, 1 Hour after administration",[1]; [5],8.0 g and 2.0 g and 6.0 g (5×) and 4.0 g
same,"pain threshold value, 3 Hour after administration",[1]; [5],6.0 g (2×) and 2.0 g (2×) and 4.0 g (4×)
same,"pain threshold value, 6 Hour after administration",[1]; [5],4.0 g and 1.0 g (3×) and 2.0 g (4×)
same,"pain threshold value, 1 Hour after administration, Average",[1]; [6],5.5 g
same,"pain threshold value, 3 Hour after administration, Average",[1]; [6],4.0 g
same,"pain threshold value, 6 Hour after administration, Average",[1]; [6],1.9 g
same,"pain threshold value, before administration, Average","[1]; model site, average of 8 animals, baseline before 1 mg/site",1.6 g
same,"pain threshold value, before administration","[1]; model site, individual animals No. 71-78, baseline before 1 mg/site",2.0 g (2×) and 1.4 g (6×)
same,pain threshold of nerve-ligated group vs medium solvent-applied group,"[2]; 2.5 mg/ml aqueous solution (low dose group), FIG. 1",statistically significant improvement
same,pain threshold of nerve-ligated group vs medium solvent-applied group,"[2]; 7.5 mg/ml aqueous solution (high dose group), FIG. 2",statistically significant improvement
same,persistence of pain threshold improvement,[2]; both 2.5 and 7.5 mg/ml groups,maintained even after 3 hours
same,"change of pain threshold value, normal leg","[3]; 10.0 mg/mL in water with 0.1% Tween 80, 0.10 mL on footpad",Increase of the threshold value was also observed
same,"pain threshold value, 1 Hour after administration",[3]; [7],10.0 g and 8.0 g and 15.0 g (2×) and 26.0 g (4×)
same,"pain threshold value, 3 Hour after administration",[3]; [7],10.0 g (3×) and 26.0 g (2×) and 15.0 g (3×)
same,"pain threshold value, 6 Hour after administration",[3]; [7],10.0 g (5×) and 8.0 g and 15.0 g (2×)
same,"pain threshold value, 1 Hour after administration, Average",[3]; [8],19.0 g
same,"pain threshold value, 3 Hour after administration, Average",[3]; [8],15.9 g
same,"pain threshold value, 6 Hour after administration, Average",[3]; [8],11.0 g
same,"pain threshold value, before administration, Average","[3]; normal site, average of 8 animals, baseline before 1 mg/site",10.8 g
same,"pain threshold value, before administration","[3]; normal site, individual animals No. 71-78, baseline before 1 mg/site",8.0 g (2×) and 10.0 g (4×) and 15.0 g (2×)
same,time the serum concentration was maintained,[4]; 9 ng/ml level,≥ 3 h
same,concentration at 30 min,"[4]; male, human, serum, topical, 30 minutes after the administration",9 ng/mL

# — patent publication US10485776B2, “Medicament for therapeutic treatment of neuropathic disease” (KEMPHYS LTD., priority 2013, dated 2019)
